Series [1] has as its system THP-1 cells. Put plainly: Release of cytokine (MIP-1β, TNF-α) from THP-1 cells (ELISA). Type of series: cell-based, human. As to conditions: 100 μM test compound, 2 hours, FIG. 9; for release level of TNF-α from THP-1 cells compared with the negative control: negative control vehicle; for release level of MIP-1β from THP-1 cells compared with the positive control: positive controls control compound A and TDCM. For orientation: In an ELISA, binding on a coated surface is turned into a signal by an enzyme label.

In series [2] the test system is THP-1 cells. Put plainly: Measurement of IL-8 released from THP-1 cells (ELISA). Type of series: cell-based, human. As to conditions: 50 μM test compound, two hours; FIG. 5. As for the experimental part:
An RPMI medium solution was prepared in the same manner as described above. Using this medium solution, an RPMI medium solution of the test compound was prepared as follows.
1.0 mg of the test compound was dissolved in 25 μl of DMSO by an ultrasonic treatment for approximately 1 minute. The thus obtained 40 mM test compound stock solution was added to 100 μl of RPMI medium to a final concentration of 50 μM. […] In the case of preparing the vehicle used as a control, instead of the 40 mM test compound stock solution, only the solvent was added in the same amount as described above to the RPMI medium, and it was then treated with ultrasonic wave for 5 seconds.
THP-1 cells (purchased from Cell Bank, RIKEN BioResource Center) were added to an RPMI medium to a cell density of 1.0×10^6 cells/100 μl and 100 μl each of the obtained solution was dispensed into a sterile Eppendorf tube. 100 μl of the RPMI medium solution of the test compound as prepared above was treated with ultrasonic wave for 5 seconds, and the total amount of the solution was then added to the Eppendorf tube, into which the cells had been dispensed. Two hours later, the reacted Eppendorf tube was centrifuged at 5000 rpm for 5 minutes, and the amount of IL-8 released into the supernatant was then measured using ELISA kit (human IL-8 ELISA kit (R & D Systems (trademark)).

In series [3] the test system is Salmonella typhmurium TA98. Kind of series: Mutagenicity test (Ames test). As to conditions: TA98, in the presence or absence of S9 mix; FIG. 11. (The Ames test detects mutagens through reverse mutation in bacteria.)
The test system of series [4] is THP-1 cells. Kind of series: Analysis of cytotoxicity to THP-1 cells using trypan blue. The series is classed as cell-based, human. As to conditions: treated for 2 hours and for 24 hours; FIG. 10. As for the experimental part:
The cultured THP-1 cells were transferred into a 50-ml centrifuge tube in a clean bench. The cells were then centrifuged at 1,000 rpm for 5 minutes at 20° C., and the supernatant was then removed. […] 10 μl of this cell suspension was added to a sterile Eppendorf tube, to which 990 μl of serum-free RPMI 1640 medium had previously been added, so that the solution was 100-fold diluted. The number of cells in 10 μl of the 100-fold diluted solution was counted with a blood cell counter, and the cell suspension was diluted with serum-free RPMI 1640 medium to a cell density of 1×10^7 cells/ml.
A test compound (Example 9)/DMSO solution, or DMSO was added to 100 μl of RPMI medium to a concentration of 200 μM. Thereafter, ultrasonic wave was applied to the mixture for 5 seconds. It is to be noted that a test compound, 6-O-(2-decyldecanoyl)-α-glucose (hereinafter referred to as a “control compound B”), and TDCM were used to prepare positive controls in the same manner as described above. In addition, a negative control was prepared by adding no test compounds (vehicle). […] Subsequently, 20 μl of 0.3% trypan blue/PBS (−) was added to the reaction solution so as to suspend the reaction solution therein, and thereafter, the survival rate of the cells was immediately analyzed using a cell number measuring apparatus (CYRORECON).

Series [5] deals with mouse intraperitoneal macrophages. Kind of series: Measurement of phagocytic ability of mouse intraperitoneal macrophages (fluorescent beads). Type of series: cell-based. As to conditions: 50 μM test compound, 2 hours, FIG. 2. As for the experimental part: Mouse intraperitoneal macrophages, a 40 mM test compound solution, and an RPMI1640 medium were prepared in the same manner as described above.
In the following experiment, Fluoresbrite (trademark) Carboxylate Microspheres (2.58% Solids-Latex) YG (Polysciences, Inc.) were used as fluorescent beads.
Macrophages were added to a TC-Plate (TC-PLATE 24 WELL, STERILE WITH LID, IND PACKED, greiner bio-one), so that they became 80% confluent. The macrophages were incubated at 37° C. for 2 hours. Thereafter, the supernatant was discarded, and the cells were then washed with 500 μl of RPMI 1640 medium two times. Each composition shown in Table 3 below was added to the TC-Plate, and it was then incubated at 37° C. for 2 hours. Thereafter, the supernatant was discarded, and the cells were then washed with 300 μl of sterilized PBS (−). In order to remove fluorescent beads that had not been incorporated into the cells, the aforementioned washing operation was repeatedly carried out two times. Macrophages were peeled off with 200 μl of sterilized PBS (−), and were then transferred into an Eppendorf tube. The macrophages were centrifuged at 1,500 rpm for 8 minutes. […]
Using FUJI FILM FLA-2000, the amount of fluorescent beads incorporated into the cells was measured [fluorescence intensity (Fluor 473 nm, Y520 Filter)]. For analysis, Image Reader V1.4J was used.

The subject of series [6] is IL-6, TNF-α, IFN-γ in mouse plasma. Put plainly: Measurement of IL-6, TNF-α and IFN-γ released into peripheral blood of test compound administered mouse. To be noted: 100 μg/mouse intravenous, two hours later; for IL-6-releasing activity (mouse plasma IL-6 concentration) compared with TDCM: FIG. 6; for IFN-γ-releasing activity (mouse plasma IFN-γ concentration) compared with TDCM: FIG. 7.

As for `CCCCCCCCCC(CCCCCCCCC)CC(=O)OCC1O[C@H](O[C@H]2OC(COC(=O)CC(CCCCCCCCC)CCCCCCCCC)[C@@H](O)C(O)C2O)C(O)C(O)[C@@H]1O` (stereo partly drawn) [Example 9, 6,6′-bis-O-(3-nonyldodecanoyl)-α,α′-trehalose], in series [1], the “release level of TNF-α from THP-1 cells compared with the negative control” value is “almost equivalent to” and the “release level of MIP-1β from THP-1 cells compared with the positive control” value is listed as 8 to 10 times. In addition, the “IL-8 released from THP-1 cells, activity compared with TDCM” value in series [2] is given as “approximately 0.8 times”. Further, the “mutagenicity (Ames test, number of His colonies)” value in series [3] is “did not exhibit mutagenicity”. Further, the “cytotoxicity to THP-1 cells (survival rate, trypan blue staining)” value in series [4] is listed as “cytotoxicity was not observed”. Besides, the “action to activate the phagocytosis of mouse intraperitoneal macrophages, compared with TDCM” value in series [5] is “approximately two times higher than the activity of TDCM”. In series [6], the “IL-6-releasing activity (mouse plasma IL-6 concentration) compared with TDCM” value was “approximately 1.5 times” and the “IFN-γ-releasing activity (mouse plasma IFN-γ concentration) compared with TDCM” value is given as “approximately 1.5 times”.

Regarding `CCCCCCCCCCC(CCCCCCCCCC)C(=O)OCC1O[C@H](O[C@H]2OC(COC(=O)C(CCCCCCCCCC)CCCCCCCCCC)[C@@H](O)C(O)C2O)C(O)C(O)[C@@H]1O` (stereo partly drawn) [Example 1, 6,6′-bis-O-(2-decyldodecanoyl)-α,α′-trehalose], in series [1], the “release level of TNF-α from THP-1 cells compared with the negative control” value is “almost equivalent to” and the “release level of MIP-1β from THP-1 cells compared with the positive control” value was “higher than”. Also, the “IL-8 released from THP-1 cells, activity compared with TDCM” value in series [2] is listed as “approximately 0.6 times”. Moreover, in series [3], the “mutagenicity (Ames test, number of His colonies)” value was “significant results could be obtained”. In addition, in series [4], the “cytotoxicity to THP-1 cells (survival rate, trypan blue staining)” value was “significant results could be obtained”. In series [5], the “action to activate the phagocytosis of mouse intraperitoneal macrophages, compared with TDCM” value is “approximately two times higher than the activity of TDCM”. For the same compound, in series [6], the “IL-6-releasing activity (mouse plasma IL-6 concentration) compared with TDCM” value is “approximately 1.2 times” and the “IFN-γ-releasing activity (mouse plasma IFN-γ concentration) compared with TDCM” value was “approximately 1.5 times”. Also, the “plasma TNF-α concentration in mice, activity compared with TDCM” value in series [6] (FIG. 8) was “the same level as that of TDCM”.

The values are drawn from patent US8741871B2, “Trehalose compound, method for producing same, and pharmaceutical product containing the compound” (priority 2008, dated 2014).
